The text below walks through data of ChEMBL document CHEMBL5579852, “Promising anti-proliferative indolic benzenesulfonamides alter mechanisms with sulfonamide nitrogen substituents” (Eur J Med Chem, 2024).

Series [1] relates to HeLa. The series is described as follows: Antiproliferative activity against human HeLa cells assessed as reduction in cell viability incubated for 72 hrs by MTT assay. The series is classed as functional, cell-based. (In general: Formazan colour is commonly taken as a measure of viable cells.)
The test system of the next series is MCF7. Briefly: Antiproliferative activity against human MCF7 cells assessed as reduction in cell viability incubated for 72 hrs by CelltiterGlo luminescent assay. Type of series: functional, cell-based. To be noted: MCF7, 72 h.
Another series has as its system BT-474. The series is described as follows: Antiproliferative activity against human BT-474 cells assessed as reduction in cell viability incubated for 72 hrs by CelltiterGlo luminescent assay. To be noted: BT-474, 72 h. For orientation: Cellular ATP, detected with luciferase, serves as a proxy for viable cell number.
The next series has as its system MES-SA. The series is described as follows: Antiproliferative activity against human MES-SA cells assessed as reduction in cell viability incubated for 72 hrs by CelltiterGlo luminescent assay.
In another series the test system is HT-1080. The series is described as follows: Antiproliferative activity against human HT-1080 cells assessed as reduction in cell viability incubated for 72 hrs by CelltiterGlo luminescent assay. To be noted: HT-1080, 72 h.
Series [2] can be described thus: Antiproliferative activity against human Melmet 5 cells assessed as reduction in cell viability incubated for 72 hrs by CelltiterGlo luminescent assay. To be noted: Melmet 5, 72 h.
Another series deals with A-375. The series is described as follows: Antiproliferative activity against human A-375 cells assessed as reduction in cell viability incubated for 72 hrs by CelltiterGlo luminescent assay. To be noted: A-375, 72 h.
Series [3] in a line: Antiproliferative activity against human WM1366 cells assessed as reduction in cell viability incubated for 72 hrs by CelltiterGlo luminescent assay. To be noted: WM1366, 72 h.
Another series concerns CAKI-1. Briefly: Antiproliferative activity against human CAKI-1 cells assessed as reduction in cell viability incubated for 72 hrs by CelltiterGlo luminescent assay. The conditions noted are these: CAKI-1, 72 h.
Series [4] can be described thus: Antiproliferative activity against human Hermes 3C cells assessed as reduction in cell viability incubated for 72 hrs by CelltiterGlo luminescent assay. The series is classed as toxicity, cell-based.
The nature of series [5]: Antiproliferative activity against human HEK293 cells assessed as reduction in cell viability incubated for 72 hrs by CelltiterGlo luminescent assay. The series is classed as toxicity, cell-based.
The nature of series [6]: Antiproliferative activity against human RPE-1 cells assessed as reduction in cell viability incubated for 72 hrs by CelltiterGlo luminescent assay. The series is classed as toxicity, cell-based. To be noted: RPE-1 cells (TERT-RPE1).
The test system of series [7] is HeLa. Briefly: Antiproliferative activity against human HeLa cells assessed as reduction in cell viability incubated for 72 hrs by CelltiterGlo luminescent assay. The series is classed as functional, cell-based.
The test system of series [8] is HeLa. The series is described as follows: Antiproliferative activity against human HeLa cells assessed as inhibition of cell growth incubated for 72 hrs in absence of verapamil by MTT assay. The series is classed as functional, cell-based.
The test system of series [9] is HeLa. The series is described as follows: Antiproliferative activity against human HeLa cells assessed as inhibition of cell growth incubated for 72 hrs in presence of verapamil by MTT assay. Type of series: functional, cell-based.
In the next series the test system is MDA-MB-468. The series is described as follows: cells. The conditions noted are these: Homo sapiens, MDA-MB-468, 72 h.
A further series can be described thus: cells. The conditions noted are these: Homo sapiens, MDA-MB-468, 72 h.

A value given as a limit tells only on which side of the number the result lay.

Description for MDA-MB-468: Antiproliferative activity against human MDA-MB-468 cells assessed as reduction in cell viability incubated for 72 hrs by CelltiterGlo luminescent assay

What is called IC50 is the concentration at which inhibition is half-maximal. As for `COc1cc(S(=O)(=O)N(Cc2ccc(N)cc2)c2ccc3c(ccn3C)c2)cc(OC)c1OC`, the half-inhibitory concentration (IC50) with HeLa [1] was 464 nM.
In the case of `COc1cc(S(=O)(=O)N(C)c2ccc3c(c2)c(C(=O)O)cn3C)cc(OC)c1OC`, the concentration for half-maximal inhibition (IC50) in the series with HeLa [1] was greater than 1000 nM.
Still for that read-out and setting: then `CCOC(=O)CCCCN(c1ccc2c(ccn2C)c1)S(=O)(=O)c1cc(OC)c(OC)c(OC)c1`, with greater than 1000 nM.
On the same count and under the same terms, then `COc1cc(S(=O)(=O)N(C)c2ccc3c(c2)C=CC3CC#N)cc(OC)c1OC` (stereo unspecified), with 114 nM; and `COc1cc(S(=O)(=O)Nc2ccc3c(c2)C=CC3CC#N)cc(OC)c1OC` (stereo unspecified), with 2560 nM.
Turning to `CCOC(=O)CCCN(c1ccc2c(ccn2C)c1)S(=O)(=O)c1cc(OC)c(OC)c(OC)c1`, the half-inhibitory concentration (IC50) with HeLa [1] is greater than 1000 nM.
On the same count and under the same terms, then `COc1cc(S(=O)(=O)N(Cc2cccc(N)c2)c2ccc3c(ccn3C)c2)cc(OC)c1OC`, with greater than 1000 nM.
Same read-out and setting: then `COc1cc(S(=O)(=O)N(CCCCCCBr)c2ccc3c(ccn3C)c2)cc(OC)c1OC`, with greater than 1000 nM.
`CCN(c1ccc2c(ccn2C)c1)S(=O)(=O)c1cc(OC)c(OC)c(OC)c1`: the IC50 worked out at 109 nM with HeLa [1]; 347 nM in the series with MCF7; 792 nM in the series with BT-474; 148 nM with MES-SA; 104 nM with HT-1080; 96.2 nM in [2]. Also, the 50% inhibitory concentration (IC50) in the series on A-375 worked out at 363 nM; in [3], 517 nM; in the series on CAKI-1, 158 nM; with HeLa [7] it was 108 nM; in the series on HeLa [8] it was 123 nM; with HeLa [9], 105 nM. Also, the IC50 turned out to be 161 nM in the series on MDA-MB-468 and 145 nM in “cells”. The 50% inhibitory concentration (IC50) at 72 h is 965 nM in [4], 323 nM in [5] and 335 nM in series [6].
Turning to `COc1cc(S(=O)(=O)N(CC#N)c2ccc3c(c2)c(C=O)cn3C)cc(OC)c1OC`, the half-inhibitory concentration (IC50) came to 22.7 nM in the series with HeLa [1]; 15.3 nM in the series with MCF7; 66.4 nM in the series with BT-474; 32.5 nM in the series on MES-SA; 14 nM with HT-1080; 12.5 nM in series [2]. Besides, the half-maximal inhibitory concentration (IC50) in the series on A-375 was 49.8 nM; in series [3] it was 31.4 nM; in the series with CAKI-1, 66.2 nM; in the series with HeLa [7] it was 18.4 nM; with HeLa [8], 57.4 nM; in the series on HeLa [9] it was 52.4 nM. Further, the IC50 in the series on MDA-MB-468 came out at 15.2 nM; in the series “cells”, 14.7 nM. Also, the values for the IC50 at 72 h in [4], in series [5] and in series [6] were 81.3 nM, 70.9 nM and 41.3 nM, respectively.
With `C#CCN(c1ccc2c(ccn2C)c1)S(=O)(=O)c1cc(OC)c(OC)c(OC)c1`, the IC50 in the series with HeLa [1] is 79.8 nM.
Consider `COc1cc(S(=O)(=O)N(CC#N)c2ccc3c(c2)c(C#N)cn3C)cc(OC)c1OC`, for which the 50% inhibitory concentration (IC50) stood at 24.4 nM in the series on HeLa [1]; 60.8 nM in the series with MCF7; 71.1 nM in the series with BT-474; 80.3 nM with MES-SA; 65.8 nM with HT-1080; 32.3 nM in series [2]. Besides, the half-inhibitory concentration (IC50) is 86.8 nM with A-375; 81.3 nM in series [3]; 29.5 nM with CAKI-1; 77.3 nM with HeLa [7]; 34.5 nM in the series on HeLa [8]; 27.2 nM in the series with HeLa [9]. The half-inhibitory concentration (IC50) with MDA-MB-468 worked out at 31.6 nM; in “cells” it was 34.4 nM. Besides, the IC50 at 72 h in [4] was 70.5 nM; in series [5], 17.7 nM; in series [6], 76.3 nM.
Turning to `CC(=O)O[C@H]1C(=O)[C@@]2(C)[C@H]([C@H](OC(=O)c3ccccc3)[C@]3(O)C[C@H](OC(=O)[C@H](O)[C@@H](NC(=O)c4ccccc4)c4ccccc4)C(C)=C1C3(C)C)[C@]1(OC(C)=O)CO[C@@H]1C[C@@H]2O` [PACLITAXEL], the concentration for half-maximal inhibition (IC50) at 72 h in series [4] was 1 nM; in series [5], 26.8 nM.
Regarding `COc1cc(S(=O)(=O)N(CCCCCCN2CCOCC2)c2ccc3c(ccn3C)c2)cc(OC)c1OC`, the IC50 in the series on HeLa [1] was greater than 1000 nM.
Same read-out and setting: then `COc1cc(S(=O)(=O)N(CCN2CCOCC2)c2ccc3c(ccn3C)c2)cc(OC)c1OC`, with greater than 1000 nM.
On the same count and under the same terms, then `COc1cc(S(=O)(=O)N(CCCBr)c2ccc3c(ccn3C)c2)cc(OC)c1OC`, with greater than 1000 nM; and `COc1cc(S(=O)(=O)N(CCCCN2CCOCC2)c2ccc3c(ccn3C)c2)cc(OC)c1OC`, with greater than 1000 nM.
As for `CCC1=C[C@@H]2CN(C1)Cc1c([nH]c3ccccc13)[C@@](C(=O)OC)(c1cc3c(cc1OC)N(C)[C@H]1[C@@](O)(C(=O)OC)[C@H](OC(C)=O)[C@]4(CC)C=CCN5CC[C@]31[C@@H]54)C2` [VINORELBINE], the half-inhibitory concentration (IC50) in the series on MCF7 is 0.8 nM; in the series with BT-474, 0.3 nM; in the series on MES-SA, 0.4 nM; with HT-1080, 0.1 nM; in series [2], 0.1 nM; in the series on A-375 it was 0.6 nM. Also, the IC50 in series [3] turned out to be 0.9 nM; in the series with CAKI-1, 0.3 nM; in the series with HeLa [7], 0.3 nM; in the series with MDA-MB-468, 0.1 nM. Further, the results for the IC50 at 72 h in series [4], in [5] and in series [6] were 0.5 nM, 15.9 nM and 9.3 nM, respectively.
On to `COc1cc(S(=O)(=O)N(CCCCBr)c2ccc3c(ccn3C)c2)cc(OC)c1OC`, for which the IC50 in the series with HeLa [1] was greater than 1000 nM.
The same measure, in the same setting: then `COc1cc(S(=O)(=O)N(Cc2ccc([N+](=O)[O-])cc2)c2ccc3c(ccn3C)c2)cc(OC)c1OC`, with greater than 1000 nM; and `COc1cc(S(=O)(=O)N(CC(N)=O)c2ccc3c(ccn3C)c2)cc(OC)c1OC`, with 275 nM.
The same measure, in the same setting: then `COc1cc(S(=O)(=O)N(CCCCCBr)c2ccc3c(ccn3C)c2)cc(OC)c1OC`, with greater than 1000 nM; and `COc1cc(S(=O)(=O)N(CCCC(=O)O)c2ccc3c(ccn3C)c2)cc(OC)c1OC`, with greater than 1000 nM.
The same measure, in the same setting: then `COc1cc(S(=O)(=O)N(Cc2ccccc2)c2ccc3c(ccn3C)c2)cc(OC)c1OC`, with greater than 1000 nM; and `COc1cc(S(=O)(=O)N(Cc2cccc([N+](=O)[O-])c2)c2ccc3c(ccn3C)c2)cc(OC)c1OC`, with greater than 1000 nM.
For the compound `CCOC(=O)CN(c1ccc2c(ccn2C)c1)S(=O)(=O)c1cc(OC)c(OC)c(OC)c1`, in the series on HeLa [1], the IC50 is greater than 1000 nM.
Still for that read-out and setting: then `COc1cc(S(=O)(=O)N(CCCN2CCOCC2)c2ccc3c(ccn3C)c2)cc(OC)c1OC`, with greater than 1000 nM.
For the compound `COc1cc2c(c(OC)c1OC)-c1ccc(OC)c(=O)cc1[C@@H](NC(C)=O)CC2` [COLCHICINE], the 50% inhibitory concentration (IC50) in the series with HeLa [8] is 16.7 nM; in the series on HeLa [9], 9.3 nM.
As to `CC(=O)O[C@@]12CO[C@@H]1C[C@H](O)[C@@]1(C)C(=O)[C@H](O)C3=C(C)[C@@H](OC(=O)[C@H](O)[C@@H](NC(=O)OC(C)(C)C)c4ccccc4)C[C@@](O)([C@@H](OC(=O)c4ccccc4)[C@H]21)C3(C)C` [DOCETAXEL ANHYDROUS], the IC50 in the series on MCF7 worked out at 3.9 nM; in the series with BT-474 it was 21.4 nM; in the series with MES-SA it was 3.4 nM; in the series on HT-1080, 1.5 nM; in [2] it was 9.5 nM; in the series with A-375, 4.5 nM. Further, the IC50 was found to be 8.5 nM in series [3]; 2.7 nM in the series with CAKI-1; 1 nM with HeLa [7]; 3.1 nM in the series on MDA-MB-468; 8.3 nM in the series “cells”. Also, the IC50 at 72 h in [4] was 1.7 nM; in series [5], 7.5 nM; in series [6] it was 8.2 nM.
For `COc1cc(S(=O)(=O)N(CCCCC(=O)O)c2ccc3c(ccn3C)c2)cc(OC)c1OC`, the IC50 in the series with HeLa [1] was greater than 1000 nM.
In the case of `COc1cc(S(=O)(=O)N(CC#N)c2ccc3c(c2)C=CC3CC#N)cc(OC)c1OC` (stereo unspecified), in the series on HeLa [1], the IC50 is 974 nM.
